Patent US11286263B2, “Macrocyclic fluorine substituted indole derivatives” (The Broad Institute, Inc., priority 2017, dated 2022)
Values joined by “and” are separate entries in the source; they are usually repeats but may differ in a detail not shown here. Equal entries are not always repeated. Structures can show the parent of a compound that is named as a salt. Where two headings read alike, the source gives them in different places.

Columns and labels:
AMO-1 = assay: Antiproliferation assay AMO-1 (Assay 7); assay type: cell-based; conditions: AMO-1 cells, CellTiter-Glo, single determinations, read-out: IC50 Antiproli AMO-1
Method in brief: (§1)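 Luminescent ATP-based viability (CellTiter-Glo) measured after 72 h of compound treatment at 37 °C. A day 0 plate recorded at time zero served as the starting reference for proliferation.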

SUDHL5 = assay: Induction of cytotoxicity, SUDHL5 (Assay 6); conditions: read-out: IC50 Cytotox SUDHL5 [M] (median), SUDHL5 cells, 5 h, CellTiter-Glo
Description: In principle, compounds that induce apoptosis will concomitantly induce cell cytotoxicity. Therefore, cytotoxicity assays were run in parallel in SUDHL5 and SUDHL10 cells.
The different cell lines were plated in culture medium (RPMI 1640 [GIBCO #22400-089] supplemented with 10% Fetal Bovine Serum) at a density of 3,300 cells in 30 μl/well in a sterile, solid black, flat bottom, polystyrene, TC-treated 384-well microplate (Corning #3571) using Multidrop Combi Reagent Dispenser. As a control, medium without cells was also added to the plate. Cells were incubated in a humidified incubator at 37° C. overnight. On the next day, the cells were treated with compounds (stock solution, 10 mM in DMSO) using the HP D300 Digital Dispenser in a concentration range of 3.3×10e-5 M (33 μM) to 5×10e-9 M (5 nM) in a single-dot curve with at least 16 dilutions and a DMSO concentration of 0.33%. Rim wells were excluded. The cells were incubated for 5 h hours in a humidified incubator at 37° C. After this incubation, 30 μl of CellTiter-Glo® Luminescent Cell Viability reagent (Promega, G7573) was added to each well using the Multidrop Combi Reagent Dispenser, followed by 15 min incubation on a shaker at room temperature. Finally, luminescence was read at 0.1 ms, with a gain of 3000 using the PHERAstar FS microplate reader (BMG Labtech).
The Bella DRC Master Sheet was used to calculate IC50s, with fixed CI=0 and C0=1.

BCL-2 = BCL-2 (Homo sapiens (Human), UniProt P10415); assay: Protein-protein interaction assay BCL-2/Bad BH3 peptide (BCL-2 assay), TR-FRET; assay type: binding; conditions: BCL-2/Bad BH3 peptide TR-FRET; median
Description: Assay 3 Protein-Protein Interaction assay: BCL-2/Bad BH3 Peptide (BCL-2 Assay)
The dose-dependent inhibition by the compounds described in this invention of the interaction between BCL-2 and the BH3 domain of Bad (both human) was determined using a steady state binding competition assay with time-resolved fluorescence energy transfer (TR-FRET) readout. For that purpose BCL-2 (amino acids 1-211, C-terminal fused to a hexahistidine (6× His) tag (SEQ ID 5) and a synthetic Bad BH3-derived peptide of sequence Biotin-PEG2-PEG2-NLWAAQRYGRELRR-Nle-SDEFVDSFKK-amide (SEQ ID 4) served as protein receptor and tracer ligand respectively. The recombinant BCL-2 protein (expressed in E. coli) was purchased from BPS Bioscience (San Diego, Calif., USA). The Bad BH3-derived peptide can be obtained from e.g. Biosyntan (Berlin, Germany).
In the assay 11 different concentrations of each compound (0.1 nM, 0.33 nM, 1.1 nM, 3.8 nM, 13 nM, 44 nM, 0.15 μM, 0.51 μM, 1.7 μM, 5.9 μM and 20 μM) were typically measured as duplicates in the same microtiter plate. For that, 100-fold concentrated DMSO solutions were prepared by serial dilutions (1:3.4) of a 2 mM stock solution in a clear, 384-well microtiter plate (Greiner Bio-One, Frickenhausen, Germany). From there, 50 nl were transferred in a dark test plate (Greiner Bio-One, Frickenhausen, Germany). The assay was initiated by addition of 2 μl of a 2,5-fold concentrated His-BCL-2 solution (usually for a 1 nM end concentration in 5 μl reaction volume) in aqueous assay buffer [50 mM Tris/HCl pH 7, 100 mM sodium chloride (NaCl), 50 mM potassium fluoride (KF), 0.005% Tween-20, 2 mM DTT, 0.1% bovine gamma globulin (BGG)] to the compounds in the assay plate. This was followed by a 10-minute incubation step at 22° C. for pre-equilibration of the putative complex between His-BCL-2 and the compounds. After that, 3 μl of a 1.67-fold concentrated solution (in assay buffer) consisting of Bad BH3-derived peptide (1 nM end concentration) and TR-FRET detection reagents [1.67 nM anti-His-Eu cryptate and 1.67 nM streptavidin-XL665 (both from Cisbio Bioassays, Codolet, France)], were added.
The mixture was incubated in the dark for one hour at 22° C. and then overnight at 4° C. The formation of BCL-2/Bad complexes was determined by measuring the resonance energy transfer of the anti-His-Eu-cryptate antibody to the streptavidin-XL665 present in the reaction. For that purpose, the fluorescence emission at 620 nm and 665 nm after excitation at 330-350 nm was measured in a TR-FRET measuring instrument, for instance a Rubystar or a Pherastar (both from BMG Lab Technologies, Offenburg, Germany) or a Viewlux (Perkin-Elmer). The ratio of the emission at 665 nm and at 622 nm was used as indicator of the amount of BCL-2/Bad complexes present.
The resulting data (ratio) were normalized, taking 0% inhibition as the mean value of control measurements (usually 32 data points) where all reagents were included. In this case 50 nl DMSO were used instead of compounds. A 100% inhibition corresponded to the mean value of control measurements (usually 32 data points) where all reagents except BCL-2 were included. IC50 values were determined by regression analysis based on a 4 parameter equation (minimum, maximum, IC50, Hill; Y=Max+(Min−Max)/(1+(X/IC50)^Hill) using the Screener Software (Genedata).

MV-4-11 = assay: Antiproliferation assay MV-4-11 (Assay 7); assay type: cell-based; conditions: MV-4-11 cells, 72 h, CellTiter-Glo, single determinations, read-out: IC50 Antiproli MV-4-11
Method in brief: as §1

Chain of BCL-2 (P10415 1-211): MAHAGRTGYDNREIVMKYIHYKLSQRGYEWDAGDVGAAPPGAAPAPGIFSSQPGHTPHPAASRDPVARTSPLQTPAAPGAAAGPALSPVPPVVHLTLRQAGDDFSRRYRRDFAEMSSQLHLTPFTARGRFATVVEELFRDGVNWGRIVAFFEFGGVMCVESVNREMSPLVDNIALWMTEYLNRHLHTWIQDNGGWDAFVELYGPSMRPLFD

Row | Structure (SMILES) | IC50 (SUDHL5; Homo sapiens, SU-DHL-5, 5 h) | IC50 (BCL-2) | IC50 (SUDHL5) | further results
1 | Cc1c2c(nn1C)COCCCCn1c(C(=O)O)c(CCCOc3cccc4ccccc34)c3ccc(F)c-2c31 (racemic) [Example 2, (rac)-4-fluoro-2,3-dimethyl-7-[3-(naphthalen-1-yloxy)propyl]-2,10,11,12,13,15-hexahydro-pyrazolo[4′,3′:9,10][1,6]oxazacycloundecino[8,7,6-hi]indole-8-carboxylic acid] | 1e-06 M | – | – | IC50 (AMO-1; 72 h, listed as 02): 1910 nM; IC50 (AMO-1; Homo sapiens, AMO1, 72 h): 2460 nM
2 | CCc1c2c(nn1C)COC/C=C\Cn1c(C(=O)O)c(CCCOc3cccc4ccccc34)c3ccc(F)c-2c31 (racemic) [Example 5, (rac)-(11Z)-3-ethyl-4-fluoro-2-methyl-7-[3-(naphthalen-1-yloxy)propyl]-2,10,13,15-tetrahydro-pyrazolo[4′,3′:9,10][1,6]oxazacycloundecino[8,7,6-hi]indole-8-carboxylic acid] | 1.5e-06 M | > 20 µM | – | –
3 | Cc1c2c(nn1C)COCCCCn1c(C(=O)O)c(CCCOc3ccc(F)c4ccccc34)c3ccc(F)c-2c31 (racemic) [Example 15, (rac)-13-fluoro-1-(3-((4-fluoronaphthalen-1-yl)oxy)propyl)-11,12-dimethyl-4,5,6,7,9,11-hexahydropyrazolo[4′,3′:9,10][1]oxa[6]azacycloundecino[8,7,6-hi]indole-2-carboxylic acid] | 1.1e-06 M | > 20 µM | – | –
4 | CCc1c2c(nn1C)CN(C)CCCCn1c(C(=O)O)c(CCCOc3cccc4c3CCC4)c3ccc(F)c-2c31 (racemic) [Example 51, (rac)-7-[3-(2,3-dihydro-1H-inden-4-yloxy)propyl]-3-ethyl-4-fluoro-2,14-dimethyl-10,11,12,13,14,15-hexahydro-2H-pyrazolo[3′,4′:8,9][1,6]diazacycloundecino[10,11,1-hi]indole-8-carboxylic acid] | 3.6e-07 M | > 20 µM | – | –
5 | CCc1c2c(nn1C)CN(C)CCCCn1c(C(=O)O)c(CCCOc3cccc4c3CCCC4)c3ccc(F)c-2c31 (racemic) [Example 52, (rac)-3-ethyl-4-fluoro-2,14-dimethyl-7-[3-(5,6,7,8-tetrahydronaphthalen-1-yloxy)propyl]-10,11,12,13,14,15-hexahydro-2H-pyrazolo[3′,4′:8,9][1,6]diazacycloundecino[10,11,1-hi]indole-8-carboxylic acid] | 4.3e-07 M | > 20 µM | – | –
6 | CCc1c2c(nn1C)CN(C)CCCCn1c(C(=O)O)c(CCCOc3cccc4cc(F)ccc34)c3ccc(F)c-2c31 (racemic) [Example 53, (rac)-3-ethyl-4-fluoro-7-{3-[(6-fluoro-1-naphthyhoxy]propyl}-2,14-dimethyl-10,11,12,13,14,15-hexahydro-2H-pyrazolo[3′,4′:8,9][1,6]diazacycloundecino[10,11,1-hi]indole-8-carboxylic acid] | 3.3e-07 M | > 20 µM | – | –
7 | Cc1c2c(nn1C)COCCCCn1c(C(=O)O)c(CCCOc3cccc4ccccc34)c3ccc(F)c-2c31 (single isomer, unassigned; enantiomer 1) [Example 3, 4-fluoro-2,3-dimethyl-7-[3-(naphthalen-1-yloxy)propyl]-2,10,11,12,13,15-hexahydropyrazolo-[4′,3′:9,10][1,6]oxazacycloundecino[8,7,6-hi]indole-8-carboxylic acid-N-ethylethanamine salt (enantiomer 1)] | – | – | 7.7e-07 M | IC50 (AMO-1; Homo sapiens, AMO1, 72 h): 2000 nM
8 | CCc1c2c(nn1C)COCCCCn1c(C(=O)O)c(CCCOc3cccc4ccccc34)c3ccc(F)c-2c31 (single isomer, unassigned; enantiomer 1) [Example 7, 3-ethyl-4-fluoro-2-methyl-7-{3-[(naphthalen-1-yl)oxy]propyl}-2,10,11,12,13,15-hexahydro-pyrazolo[4′,3′:9,10][1,6]oxazacycloundecino[8,7,6-hi]indole-8-carboxylic acid-N-ethylethanamine salt (enantiomer 1)] | – | – | 4.6e-07 M | IC50 (AMO-1; Homo sapiens, AMO1, 72 h): 1910 nM; IC50 (MV-4-11; listed as 07): 2370 nM and 1940 nM
9 | Cc1c2c(nn1C)COCCCCn1c(C(=O)O)c(CCCOc3cccc4cc(F)ccc34)c3ccc(F)c-2c31 (single isomer, unassigned; enantiomer 1) [Example 13, 4-fluoro-7-{3-[(6-fluoronaphthalen-1-yl)oxy]propyl}-2,3-dimethyl-2,10,11,12,13,15-hexahydro-pyrazolo[4′,3′:9,10][1,6]oxazacycloundecino[8,7,6-hi]indole-8-carboxylic acid-N-ethylethanamine salt (enantiomer 1)] | – | – | 3.9e-07 M | IC50 (AMO-1; 72 h): 747 nM and 564 nM; IC50 (MV-4-11): 679 nM and 412 nM
10 | CCc1c2c(nn1C)COCCCCn1c(C(=O)O)c(CCCOc3cccc4cc(F)ccc34)c3ccc(F)c-2c31 (single isomer, unassigned; enantiomer 1) [Example 22, 3-ethyl-4-fluoro-7-{3-[(6-fluoronaphthalen-1-yl)oxy]propyl}-2-methyl-2,10,11,12,13,15-hexahydropyrazolo[4′,3′:9,10][1,6]oxazacycloundecino[8,7,6-hi]indole-8-carboxylic acid-N-ethylethanamine salt (enantiomer 1)] | – | – | 3.3e-07 M | –
11 | CCc1c2c(nn1C)COCCCCn1c(C(=O)O)c(CCCOc3ccc(F)c4ccccc34)c3ccc(F)c-2c31 (single isomer, unassigned; enantiomer 1) [Example 27, 3-ethyl-4-fluoro-7-{3-[(4-fluoronaphthalen-1-yl)oxy]propyl}-2-methyl-2,10,11,12,13,15-hexahydropyrazolo[4′,3′:9,10][1,6]oxazacycloundecino[8,7,6-hi]indole-8-carboxylic acid-N-ethylethanamine salt (enantiomer 1)] | – | – | 1e-06 M | IC50 (AMO-1; 72 h): 1330 nM and 2530 nM
12 | CCc1nn(C)c2c1-c1c(F)ccc3c(CCCOc4cccc5cc(F)ccc45)c(C(=O)O)n(c13)CCCCOC2 (single isomer, unassigned; enantiomer 1) [Example 39, 3-ethyl-4-fluoro-7-{3-[(6-fluoronaphthalen-1-yl)oxy]propyl}-1-methyl-1,10,11,12,13,15-hexahydropyrazolo[4′,3′:9,10][1,6]oxazacycloundecino[8,7,6-hi]indole-8-carboxylic acid-N-ethylethanamine salt (enantiomer 1)] | – | – | 6.2e-07 M | IC50 (AMO-1; 72 h): 1720 nM
13 | CCc1c2c(nn1C)COCCCCn1c(C(=O)O)c(CCCOc3cccc4cc(F)ccc34)c3ccc(F)c-2c31 (single isomer, unassigned; enantiomer 2) [Example 23, 3-ethyl-4-fluoro-7-{3-[(6-fluoronaphthalen-1-yl)oxy]propyl}-2-methyl-2,10,11,12,13,15-hexahydropyrazolo[4′,3′:9,10][1,6]oxazacycloundecino[8,7,6-hi]indole-8-carboxylic acid-N-ethylethanamine salt (enantiomer 2)] | – | – | 3.2e-06 M | IC50 (MV-4-11): 15500 nM
